According to PMC9952391, “The Role of Acetyl Zingerone and Its Derivatives in Inhibiting UV-Induced, Incident, and Delayed Cyclobutane Pyrimidine Dimers” (Antioxidants, 2023):

Columns and labels:
[1] = test system: human keratinocytes (HaCaT); test: Cell survival assay (Alamar blue), keratinocytes; format: cell-based; conditions: 24 h pre-incubation, Supplementary Figure S2
[2] = test system: incident CPDs (iCPDs) in NBHF cells; test: iCPD assessment by DNA ELISA after ssUV, NBHF; format: cell-based, human
Description: (§1) For UV exposures, we used a “SOL-UV6 ultraviolet solar simulator” from Newport irradiators. It is equipped with a Xenon arc lamp where the output is varied using the integrated variable attenuator aperture, which provides the ability to vary the output from 10% to 100% of the maximum available solar constants. The output spectrum is flat from 320 nm to 400 nm and no values are below 300 nm. This is abbreviated as “ssUV” for “solar-simulated UV” throughout the text. Various cell types seeded at ~50% confluency, were treated with the AZ and analogs at concentrations mentioned in the data figures for 24–h. Cells at ~80–90% confluency (untreated controls), were washed twice with PBS and exposed to 18 kJ/m^2 of ssUV in minimal amount of PBS (ex. 2 mL PBS in a 60 mm cell culture dish) without any dish lid in place. […] The ssUV apparatus was monitored almost daily using UV meters for any emissions below 300 nm. The dose was decided based upon the 80–90% cell survival post UV exposure. After exposure, one time point was collected immediately to assess iCPDs, whereas more dishes were incubated in cell culture medium, inside the cell culture incubator, for various time points to be collected post UV to assess dCPDs. For dCPD induction, it is important that the cell culture incubator is not opened for at least 30 min (the first time point post UV) to avoid possible interference from the CO2/O2 ratio, which will be altered upon opening the incubator doors. Cells were collected by scraping and washed once with PBS, which was followed by DNA isolation using a Quick DNA miniprep Kit (Cat. D3024, Zymo Research, Irvine, CA, USA). CPDs were assessed using our previously established DNA ELISA protocols. In brief, ELISA was performed using mouse monoclonal Anti-CPD (Cat. CAC-NM-DND-001, Clone TDM-2, CosmoBio, Inc., Carlsbad, CA, USA). Flat-bottom, 96-well plates (Cat. 2801, Thermo Scientific, Waltham, MA, USA) were coated overnight with 50 µL of protamine sulphate (0.005–0.05%, Cat. P3369, Sigma, St. Lois, MO, USA) in distilled water. After washing twice with water, heat-denatured DNA was plated in triplicates from each sample, into the protamine sulphate coated plate wells (50–100 ng/well in 50 µL PBS) and incubated overnight at 37 °C. The plates were washed 5 times with 200 µL of PBST (PBS containing 0.05% Tween-20 Cat. P7949, Sigma), and blocked with 2–4% FBS in PBST (blocking buffer) for 1 h at room temperature (RT). The plates were incubated with 100 µL of a 1:1000 dilution of anti-CPD antibody in blocking buffer, and incubated for 30 min at 37 °C, which was followed by 5 washes in PBST. Next, the plates were incubated with 100 µL of a 1:2000 dilution of Biotin-F(ab’)2 fragment of anti-mouse IgG(H+L) (Cat. B-2763, Life Technologies) in blocking buffer for 30 min at 37 °C. Detection was conducted using 100 µL of a 1:10,000 dilution of Streptavidin HRP (Cat. 434323, Life Technologies) in 2% FBS for 30 min at 37 °C, which was followed by 5 washes. The plates were washed once with citrate phosphate buffer (24.3 mM citric acid monohydrate, J.T. Baker Cat. 0110-01- and 51.4-mM sodium phosphate dibasic, Sigma Cat. S7907, pH 5.0). The o-phenylene diamine dihydrochloride (Cat. P8287-50TAB, Sigma) was used as a HRP substrate at 400 µg/mL in citrate phosphate buffer for 5–10 min. A measure of 50 µL of 2M H2SO4 was used to stop the reaction as soon as the color developed (5–10 min incubation in substrate), and OD was measured at 490 nm using a Synergy-2 multimode microplate reader (BioTek, Winooski, VT, USA).

[3] = test system: melanocytes; parameters: method as in PMID 31538664; conditions: 25 µg/mL; cited from earlier work
[4] = test system: Xpa, Xpc, Mitf, Xrcc1 expression in Mel-a; test: qPCR expression of NER pathway genes, Mel-a; format: cell-based, mouse
Description: (§2) Various cell types were collected 24-h post incubation with 200 µg/mL AZ and MBPD, with and without ssUV exposure. RNA was isolated using a Quick-RNA isolation kit (Cat. R1050, Zymo Research). The cDNA was prepared using a High-Capacity cDNA Reverse Transcription Kit (Cat. 4368814, ThermoFisher Scientific). The gene expression of XPA, XPC, and MITF genes was assessed using the following primers. β-actin was used as an internal control for normalizations and data analyses. F1-R1 and F2-R2 represents two primer pairs which were used in the qPCR experiments.

[5] = test system: incident CPDs (iCPDs) in HaCaT cells; test: iCPD assessment by DNA ELISA after ssUV, HaCaT; format: cell-based, human; conditions: 250 µg/mL, 24 h preincubation
Description: (§3) For UV exposures, we used a “SOL-UV6 ultraviolet solar simulator” from Newport irradiators. It is equipped with a Xenon arc lamp where the output is varied using the integrated variable attenuator aperture, which provides the ability to vary the output from 10% to 100% of the maximum available solar constants. The output spectrum is flat from 320 nm to 400 nm and no values are below 300 nm. This is abbreviated as “ssUV” for “solar-simulated UV” throughout the text. Various cell types seeded at ~50% confluency, were treated with the AZ and analogs at concentrations mentioned in the data figures for 24–h. Cells at ~80–90% confluency (untreated controls), were washed twice with PBS and exposed to 18 kJ/m^2 of ssUV in minimal amount of PBS (ex. 2 mL PBS in a 60 mm cell culture dish) without any dish lid in place. […] The ssUV apparatus was monitored almost daily using UV meters for any emissions below 300 nm. The dose was decided based upon the 80–90% cell survival post UV exposure. After exposure, one time point was collected immediately to assess iCPDs, whereas more dishes were incubated in cell culture medium, inside the cell culture incubator, for various time points to be collected post UV to assess dCPDs. For dCPD induction, it is important that the cell culture incubator is not opened for at least 30 min (the first time point post UV) to avoid possible interference from the CO2/O2 ratio, which will be altered upon opening the incubator doors. Cells were collected by scraping and washed once with PBS, which was followed by DNA isolation using a Quick DNA miniprep Kit (Cat. D3024, Zymo Research, Irvine, CA, USA). CPDs were assessed using our previously established DNA ELISA protocols. In brief, ELISA was performed using mouse monoclonal Anti-CPD (Cat. CAC-NM-DND-001, Clone TDM-2, CosmoBio, Inc., Carlsbad, CA, USA). […] A measure of 50 µL of 2M H2SO4 was used to stop the reaction as soon as the color developed (5–10 min incubation in substrate), and OD was measured at 490 nm using a Synergy-2 multimode microplate reader (BioTek, Winooski, VT, USA).

[6] = test system: nitrotyrosine / nitric oxide synthase (NOS) activity in Mel-a melanocytes; test: Immunofluorescence for nitrotyrosine (marker of NOS activity); format: cell-based, mouse; conditions: 50 µg/mL, 24–36 h
Description: Posttranslational modification nitrotyrosine was used as a marker of nitric oxide synthase (NOS) activity. Melanocytes were cultured on collagen-coated, glass-bottom dishes (cat. P35G-1.5-14-C, MatTek, Ashland, MA, USA). After various treatments, cells were fixed with 4% formaldehyde for 10 min at RT, washed with PBS, and permeabilized with 0.5% Triton-X in PBS for 10 min. After blocking for non-specific antibody binding using 5% goat serum (Cat. 16210064, ThermoFisher Scientific) and 1% globulin free BSA (Cat. 001-000-161, Jackson ImmunoResearch, West Grove, PA, USA) in 0.1% Triton-x in PBS (blocking buffer) for 2 h at room temperature, cells were incubated with 1:1000 dilution of anti-nitrotyrosine antibody (Cat. A-21285, ThermoFisher Scientific) overnight at 4 °C. Detection was conducted using Alexa Fluor 488 Goat Anti-rabbit IgG (Cat. A-11008, Life Technologies). Imaging was performed using a ZEISS Axio Observer microscope. Approximately 5–10 images per condition, with ~70–100 cells per image, were quantitated for nitrotyrosine fluorescence using ImageJ software.

[7] = test system: melanin in Mel-a cells; test: Melanin amount in melanocytes cultured in varied tyrosine; format: cell-based; conditions: 50 µg/mL
Description: The amino acid tyrosine is essential for melanin synthesis, and it is added to the OptiMem medium at a proprietary concentration by ThermoFisher. Assuming this concentration to be “100% tyrosine”, we purchased the “custom-prepared, tyrosine-free” medium from ThermoFisher. This medium lacked tyrosine or its precursors, which include L-tyrosine, L-tyrosine-2Na-2H2O, L-tyrosine-Di-sodium salt, Hypoxanthine, and Sodium Hypoxanthine. Mel-a (pigmented mouse melanocyte) cells were cultured in regular cell culture medium containing 100% tyrosine, and in medium containing 20%, 4%, or 0% of the total tyrosine amount. This was achieved by diluting the regular OptiMem with the one containing no tyrosine (tyrosine-free, 0% tyrosine). […] Since the cells cultured in 0%-tyrosine medium lost their pigment over time (Figure 5) and the cell pellets were almost white or opaque in color, we assumed that the minimal amount of tyrosine from the horse serum used in the cell culture medium was not sufficient for melanin synthesis. To estimate the amount of melanin, 3 × 10^6–5 × 10^6 cells were lysed in 1M sodium hydroxide (NaOH) by heating them at 100 °C for 1–2 h, which was followed by a 10-min spin at 14,000 rpm at room temperature to remove any cell debris. Absorbance of the supernatant was recorded using the supernatant in a 96-well plate in triplicates from each sample, at 460–490 nm. Synthetic melanin (Cat. M0418, Sigma) was dissolved in methanol and used as a positive control to generate standard curves to estimate the melanin amount in cell lysates. The number of cells in each pellet was used as a normalization factor for each experimental condition. In a complementary experiment, cells were first bleached out of melanin completely by culturing them in tyrosine-free medium, followed by 100/20/4/0% tyrosine (not shown) treatment. This seemed to be cytotoxic, comparatively more so in 100% tyrosine, probably owing to the toxicity of the sudden rush of melanin derivatives and the oxidative stress generated during melanin synthesis.

[8] = test system: MMP-3; parameters: method as in PMID 31465741; conditions: in vitro assays; cited from earlier work
[9] = test system: MMP-1; parameters: method as in PMID 31465741; conditions: in vitro assays; cited from earlier work
[10] = test system: MMP-12; parameters: method as in PMID 31465741; conditions: in vitro assays; cited from earlier work
[11] = test system: delayed (dark) CPDs (dCPDs) in Mel-a cells; test: dCPD assessment by DNA ELISA post ssUV, Mel-a; format: cell-based, mouse; conditions: Mel-a, 50 µg/mL, 24–36 h preincubation, 0.5 to 4 h post ssUV, Figure 4C
Description: as §3

[12] = test system: incident CPDs (iCPDs) in pigmented C57BL/6 melanocytes (Mel-a); test: iCPD assessment by DNA ELISA after ssUV, Mel-a; format: cell-based, mouse
Description: as §1

[13] = test system: incident CPDs (iCPDs) in albino C57BL/6 melanocytes (Mel-c); test: iCPD assessment by DNA ELISA after ssUV, Mel-c; format: cell-based, mouse; conditions: various doses up to 1 mg/mL, 24 h, Figure 4B
Description: as §3

[14] = test system: Xpa, Xpc, Mitf, Xrcc1 expression in Mel-c; test: qPCR expression of NER pathway genes, Mel-c; format: cell-based, mouse; conditions: 24 h incubation
Description: as §2

## COc1cc(CC(C(C)=O)C(C)=O)ccc1O [AZ, 3-(4-Hydroxy-3-methoxybenzyl)-pentane-2,4-dione]
[1]
  Cytotoxicity at 1000 µg/ml: cytotoxic
[2]; 1 mg/mL, 24 h preincubation
  Blockade of iCPDs: ~ 50%
[2]; various doses, Figure 3C / Supplementary Figure S2B
  iCPD inhibition across doses: minimal effect
[3]
  Effect on iCPDs: without any significant effect
  Inhibition of delayed or dark CPDs (dCPDs): inhibition
[4]; 200 µg/ml, 24 h, then 18 kJ/m2 ssUV, various time points, relative to UV-induced upregulation
  NER pathway gene expression post UV exposure: elevated slightly
[4]; 24 h incubation, no UV, qPCR
  Gene expression of Xpa, Xpc and Mitf (NER pathway): upregulated
[4]; 24 h incubation, qPCR
  Gene expression of Xrcc1: remained unaffected
[5]
  Blockade of iCPDs: ~ 50%
[6]
  Amount of nitrotyrosine (NOS activity marker): reduced the amount of nitrotyrosine
[7]; different tyrosine variations
  Impact on melanin: did not show any impact
[7]; 2–3 weeks incubation
  Cell death on longer incubation: 10–15%
[8]
  Inhibition of MMP-3 activity: inhibited
[9]
  Inhibition of MMP-1 activity: inhibited
[10]
  Inhibition of MMP-12 activity: inhibited
[11]
  Inhibition of delayed CPDs (dCPDs): inhibited dCPD formation almost completely
[12]; 50 µg/mL, 24-h preincubation, 18 kJ/m^2 ssUV
  Blockade of iCPDs: ~ 30%
[12]; various doses up to 1 mg/mL, 24 h, Figure 4A
  iCPD inhibition across doses: blocked iCPD generation in a dose-dependent manner
[13]
  iCPD inhibition across doses: no significant impact
[14]
  Gene expression of Xrcc1: remained unaffected
[14]; no UV
  Gene expression of Xpa, Xpc and Mitf (NER pathway): remained unaffected

## COc1ccc(CC(C(C)=O)C(C)=O)cc1OC [DMBPD, 3-(3,4-Dimethoxy-benzyl)-pentane-2,4-dione]
[2]; 50 µg/mL, 24 h preincubation, 18 kJ/m^2 ssUV, Figure 3B
  Inhibition of iCPD formation: inhibited iCPD formation to varying extents
